This is an account of results in PMC4633953, “FR171456 is a specific inhibitor of mammalian NSDHL and yeast Erg26p” (Nature Communications, 2015).

Assay [1] has as its system HCV replicon subgenomic genotype 1b. In words: HCV replicon assay in Huh-7 cells (luciferase). The conditions noted are these: Hepatitis C virus; Huh-7 cell-based assay, 48 h. As for the experimental part:
The inhibitor screening was performed in 1,536-well plate with 3,000 cells per well, using Huh-7 cells containing the HCV replicon subgenomic genotype 1b, maintained in DMEM, supplemented with (1 × ) L-glutamine (L-Glue), 1 × non-essential amino acids, 10% heat-inactivated fetal bovine serum (FBS), and 1 mg ml^–1 G418, and incubated with compounds for 48 h at 37 °C, 5% CO2. […] Following compound incubation, Resazurin solution (10 × : 1 μg μl^–1 Resazurin in DMSO) diluted to 1 × was then added to a volume of 0.5 μl to each well and incubated for further 3 h at 37 °C, 5% CO2 to monitor cell viability. Subsequently 15 μl, diluted 1:2 from stock of Steady- Glo (Promega) was added and the luminescence from the HCV replicon was monitored using the Envision (Envision US Lum, using 0.1 s per well measurement time).
In general terms: A replicon is a self-replicating genome or part of one, used to study replication in cells.

In assay [2] the test system is HepG2. In words: Mammalian cell proliferation, HepG2. Type of assay: cell-based.
Assay [3] has as its system S. cerevisiae. In words: Yeast fermentation with FR171456 and metabolic profiling for substrate accumulation. In kind it is cell-based. On the procedure:
In the fermentation experiment, a single yeast colony was grown in 10 ml YP with galactose (2%) & Raffinose (1%) for 5 h (OD 1.0) at 30 °C. An inoculum (70 μl) from the same culture was used to inoculate 400 ml YP-gal (2%)+Raffinose (1%). This culture was then grown overnight at 30 °C. The OD at this point was 0.7. This culture was used to seed 20-l fermenter maintained at 30 °C. When OD in the fermenter was 0.7, then 1466, nM (IC80) of FR171456 was added to the fermenter. The cell pellets (3.8 g) were harvested after 7 h. Erg26p substrate (1.95 mg) was obtained by lipid extraction with ethylacetate and methanol.
Lipid extracts from yeast cells were prepared as described as above. Ergosterol and 4α-methylzymosterol-4-carboxylic acid were analysed on an UltiMate 3000 RS LC (Thermo Fisher Scientific, Waltham, MA, USA) coupled to a 4000 QTRAP (AB Sciex, Foster City, CA, USA), which was equipped with a ESI-Turbo Spray ion source (AB Sciex). […]
Ion source parameters and compound-dependent instrument parameters were optimized by infusing pure standard solutions of ergosterol and 4α-methylzymosterol-4-carboxylic acid, respectively. […] All mass transitions were monitored for 65 msec per SRM scan with a unit/unit resolution for Q1/Q3. […]

Assay [4] concerns erg26Δ haploid yeast expressing mutant ERG26 alleles. In words: Growth dose response of erg26Δ haploid yeast expressing mutant ERG26 alleles. In kind it is cell-based, S. cerevisiae. The settings on record: seven mutant ERG26 alleles, rich liquid media. From the text: To confirm that the observed ERG26 mutations are dominant and sufficient to confer FR171456 resistance, but retain the essential function of Erg26p, we assessed the growth of erg26Δ haploid yeast expressing wild-type ERG26 or one of seven mutant alleles inserted at another locus in rich liquid media. […] It was not possible to generate a haploid strain carrying a single copy of ERG26 encoding the Gly90Ser mutation after multiple attempts. Thus seven of the eight mutations within the coding region of ERG26 are both dominant for FR171456 resistance and retain sufficient enzymatic function to support life. This additional genetic data set confirms that Erg26p is the target of FR171456.
For EMS mutagenesis experiments, 1 × 10^8 cells were plated on one standard YPD agar plate containing 50 μM FR171456 in 2% DMSO v/v following a standard EMS mutagenesis protocol. After 2 days incubation at 30 °C 48 representative colonies were picked and retested in an overnight liquid assay for growth in YPD with or without 50 μM FR171456 in 2% DMSO v/v. Genomic DNA was prepared from 42 resistant clones (+ one wild type) and for each the entire ERG26 gene was sequenced following PCR amplification with high-fidelity polymerase. […]

Assay [5] has as its system F. solani. In words: Combination with clinical antifungal agents (Loewe synergy, growth by OD530). In kind it is cell-based. The settings on record: >1 is synergistic.
Procedure: incubated for 24 h in increasing combined doses of FR171456 and Amphotericin B, and growth
assessed by OD530. (a) Normalised growth rates plotted as % inhibition of growth. (b) Loewe excess
heat map showing difference between predicted scores based upon the addition of each agent
alone and the actual values detected plotted as difference in % of inhibition. (c) Loewe isobologram
- a comparison of the doses of each compound needed to achieve 50% inhibition of proliferation.
Assay [6] deals with hepatic sterol synthesis. Also on record: method as in PMID 15217190. The conditions noted are these: rats, short term experiments, up to 10 mg kg^−1 ref 14; cited from earlier work.
Assay [7] concerns Candida parapsilosis NF2903. In words: Antifungal MIC. The conditions noted are these: Lodderomyces parapsilosis. In kind it is cell-based.
The subject of assay [8] is Aspergillus terreus NF4906. In words: Antifungal MIC. In kind it is cell-based.
In assay [9] the test system is Saccharomyces cerevisiae NF3201. In words: Antifungal MIC. In kind it is cell-based.
The subject of assay [10] is K562. In words: Mammalian cell proliferation, K562. Type of assay: cell-based.
Assay [11] has as its system Cryptococcus neoformans NF3102. In words: Antifungal MIC. In kind it is cell-based.

Where “and” joins values, the source holds several entries; their conditions need not be identical. Equal values may be shown once. Where only a bound is given, the exact number is not on record here.

For `C=C(CCC(C)C1CCC2C1(C)CC(O)C13CC14C(=O)CC(O)C(C)(C(=O)O)C4C(=O)CC23O)C(C)C` [FR171456, (1R,2aR,3R,5aR,5bS,7aR,8S,9S,11aS,12aR)-1,5b,9-trihydroxy-2a,8-dimethyl-3-((R)-6-methyl-5-methyleneheptan-2-yl)-7,11-dioxohexadecahydrocyclopenta[a]cyclopropa[e]-phenanthrene-8-carboxylic acid], in [1], the IC50 (in general, the point on the concentration scale where inhibition reaches its midpoint) is 6.3 nM. Also, the concentration affecting proliferation was 80 µM in assay [2] and 36 µM in [10]. In addition, the “Erg26p precursor (4α-methylzymosterol-4-carboxylic acid) level” value in assay [3] (FR171456 1466 nM for 7 h) is listed as “accumulates”. Also, the concentration for an effect of 80% (IC80) (as a rule, the point of the concentration-response curve where the effect stands at 80%) in assay [3] (Saccharomyces cerevisiae, yeast in YP-gal (2%)+Raffinose (1%), fermenter 30 °C) was found to be 1470 nM. Also, the “change of growth IC50 compared with the isogenic control” value in assay [4] was “increase in the IC50”. Besides, the Loewe synergy score in assay [5] (combination of Amphotericin B and FR171456, text prints R. oryzae, Supplementary Fig. 4 F. solani) is on record as 2.7; in [5] (combination with posaconazole) it was < 1. In addition, the “dose giving significant reduction in hepatic sterol synthesis” value in assay [6] is 0.1 mg/kg. Further, the MIC (usually the lowest concentration that inhibits growth of the organism) in assay [7] was 32 µg/mL and 72 µM; in [8], 4 µg/mL and 9 µM; in [9], 8 µg/mL and 18 µM; in [11], 32 µg/mL and 72 µM.
